For assay [1], the system named is A. baumannii ARC5955. Kind of assay: Neutropenic murine thigh infection model. In kind it is in vivo. The settings on record: thigh tissue, CD-1 mice, 24 h after initiation of therapy, 50 mg/kg SC/q3h.
Assay [2] addresses ADC-7 β-lactamase (Acinetobacter baumannii, UniProt Q6DRA1). Kind of assay: β-Lactamase steady-state kinetic analysis, ADC-7. In kind it is biochemical, A. baumannii.
The target in assay [3] is T1, OXA-58 β-lactamase (Acinetobacter baumannii, UniProt Q2TR58). Kind of assay: β-Lactamase steady-state kinetic analysis, OXA-58. In kind it is biochemical, Acinetobacter spp.
T1 sequence (Q2TR58 22-280): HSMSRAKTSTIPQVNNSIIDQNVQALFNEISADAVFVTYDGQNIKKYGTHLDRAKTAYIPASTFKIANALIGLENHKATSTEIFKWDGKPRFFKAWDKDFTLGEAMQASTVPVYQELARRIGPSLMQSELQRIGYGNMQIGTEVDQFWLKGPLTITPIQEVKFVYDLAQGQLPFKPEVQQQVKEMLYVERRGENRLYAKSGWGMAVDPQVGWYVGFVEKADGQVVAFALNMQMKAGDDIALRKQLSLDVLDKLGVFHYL
Assay [4] deals with OXA-66 β-lactamase (Acinetobacter baumannii, UniProt Q58XD2). Kind of assay: β-Lactamase steady-state kinetic analysis, OXA-66. In kind it is biochemical, A. baumannii.
Sequence of OXA-66 β-lactamase (Q58XD2 entry or part of it): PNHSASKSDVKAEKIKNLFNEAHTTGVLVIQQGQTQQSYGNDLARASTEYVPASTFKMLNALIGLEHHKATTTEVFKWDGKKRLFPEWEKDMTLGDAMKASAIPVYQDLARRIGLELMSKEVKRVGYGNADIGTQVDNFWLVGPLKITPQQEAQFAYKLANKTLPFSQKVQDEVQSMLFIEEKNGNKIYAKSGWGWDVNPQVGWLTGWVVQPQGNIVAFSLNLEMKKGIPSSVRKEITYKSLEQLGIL
Assay [5] addresses T1, OXA-58 β-lactamase. The assay is described as follows: OXA-58 acyl-transfer experiment (mass spectrometry), KPC-2 as recipient. To be noted: 10 µM each, 15 s to 24 h. In kind it is biochemical.
Assay [6] has as its system OXA-48. To be noted: cited from earlier work.
Assay [7] relates to OXA-10. The settings on record: OXA-10; range given jointly for several OXA enzymes; cited from earlier work.
The subject of assay [8] is OXA-23. The settings on record: range given jointly for several OXA enzymes; cited from earlier work.
Assay [9] has as its system OXA-24/40. To be noted: range given jointly for several OXA enzymes; cited from earlier work.
For assay [10], the system named is KPC-2 β-lactamase. To be noted: cited from earlier work.
Assay [11] deals with OXA 24/40. The settings on record: cited from earlier work.
Setting [12] is: read-out: koff (residence time).

`CC1=C[C@@H]2CN(C(=O)N2OS(=O)(=O)O)[C@@H]1C(N)=O` [ETX2514]: in [1], the “Log10 CFU/g” value came to 8.8 log10 CFU/g. Further, the “Change in log10 CFU/g” value in [1] (50 mg/kg) worked out at 2.2 log10 CFU/g. Further, the results for the Kd in assay [2] and in assay [3] were 1 ± 0.1 nM and 1 ± 0.2 nM, respectively. For the same molecule, the Ki in assay [2] was 110 ± 10 nM; in assay [3] it was 390 ± 40 nM; in assay [4], 43000 ± 4000 nM. For the same molecule, the kinact/KI worked out at 1e+06 ± 1e+11 M⁻¹ s⁻¹ in assay [2] (pH 7.4, read-out: k2/Ki) and 250000 ± 3e+09 M⁻¹ s⁻¹ in [3] (pH 7.4, read-out: k2/Ki). Moreover, the koff was 0.0008 ± 1e-08 s⁻¹ in assay [2] (setting [12]), 0.00016 s⁻¹ in [3] (setting [12]) and 1.0 ± 0.1 × 10^−3 s^−1 in assay [10]. Besides, the “acyl transfer from acylated OXA-58 to KPC-2” value in [5] is on record as “did not transfer to KPC-2”. For the same molecule, the k2/Ki in [6] is on record as 8 ± 2 × 10^5 M^−1 s^−1; in assay [7], 5 to 9 × 10^3 M^−1 s^−1; in [10], 9.3 ± 0.6 × 10^5 M^−1 s^−1. In addition, the “k2/Ki (acylation rate)” value in assay [8] and in assay [9] was 5 to 9 × 10^3 M^−1 s^−1 throughout. Moreover, in [11], the IC50 is 190 nM.

(Values after PMC6414696 (mBio, 2019).)
